Earlier results in patent US20230000758A1, “METHOD FOR PREVENTING SKIN AGING COMPRISING KOREAN MINT EXTRACT” (COSMAX NBT, INC., priority 2021, published 2023).

System: catalase
Conditions: lipopolysaccharide-stimulated mouse lung tissues

COc1ccc(-c2cc(=O)c3c(O)cc(O[C@@H]4O[C@H](CO[C@@H]5O[C@@H](C)[C@H](O)[C@@H](O)[C@H]5O)[C@@H](O)[C@H](O)[C@H]4O)cc3o2)cc1 [linarin]
expression of the anti-oxidant enzyme catalase: markedly increased
